Measured values reported in US7705032B2, “Method and composition for treating burned skin” (Lil Brat Pharmaceuticals of Marlette, MI, priority 2003, dated 2010).

System: sunburned skin
Experiment: topical treatment of sunburned skin
Format: in vivo, human being
Settings: compared with other anti-inflammatory drugs, such as Motrin® and Tolectin®
Source text: The present invention provides a method and composition for treating sunburned skin of a human being. The composition includes a mixture of indomethacin and a moisturizing lotion. […] It is believed that the skin, with the presence of the topical formulation, acts as a reservoir, absorbing large amounts of the indomethacin and slowly releasing the indomethacin into the skin and to other tissues. The skin may actually act as a depot or reservoir for the indomethacin. It is believed that the indomethacin is stabilized and solubilized by the moisturizing lotion wherein the moisturizing lotion enhances the absorption of the indomethacin through the skin and accordingly permits the drug to be employed topically for inflammation of the sunburned skin. […] This mixture level allows the Cetaphil® to act as a proper stabilizer and solubilizer for the indomethacin. A stronger or weaker indomethacin mixture may be created depending on the treatment. However, experimentation has shown that the above-noted mixture remains an effective mixture for the treatment of sunburned skin. In use, the disclosed amounts of indomethacin and Cetaphil® are mixed to create the appropriate composition. […] The moisturizing lotion provides moisture and a cooling sensation to the sunburned skin, and the indomethacin reduces the inflammation to the skin caused by the sunburn. […]

Question: `COc1ccc2c(c1)c(CC(=O)O)c(C)n2C(=O)c1ccc(Cl)cc1` [indomethacin, 1-(p-chlorobenzoyl)-5-methoxy-2-methylindole-3-acetic acid] was tested. Which relieving sunburned skin did it give?
Answer: far better results
